Patent US10471025B2, “Compositions for use in treating parkinson's disease and related disorders” (Technophage, Investigação E Desenvolvimento Em …, priority 2015, dated 2019)
“Also recorded” adds a separate entry of the source. Where a name gives a salt, the structure may show the parent alone. Read-outs that look alike come from different tables or passages of the source.

Legend:
[1] = cited from earlier work
[2] = cited from earlier work; for Bioavailability: 86 mg
[3] = system: 6-OHDA mouse model; experiment: Abnormal involuntary movements (AIMs), 6-OHDA mice, ON/OFF L-Dopa study (Example 7)
Method: The unilateral striatal 6-OHDA mice model was used in this study. Specifically, 12 week old CD-1 male mice received an injection of 6-OHDA neurotoxin at the following coordinates: AP +0.9 mm, ML +2.0 mm, DV −3.2 mm, as in the Example outlined above. Animals were injected with 10 ? g of 6-OHDA or ascorbic acid (vehicle control) to induce the disease. Disease was induced for 7 days and treatment then was initiated at this time point.
The following parameters were evaluated: hyperkinetic and/or dystonic movements of the contralateral forelimb on the sagittal or frontal plane (forelimb involuntary movements; FIG. 29A), twisted posture of the neck and upper body towards the side contralateral to the lesion (upper body involuntary movements; FIG. 29B), twitching of orofacial muscles, empty jaw movements and contralateral tongue protrusion (orofacial involuntary movements; FIG. 29C), circular locomotion with contralateral side bias (circular involuntary movements; FIG. 29D), total involuntary movements (FIG. 29E), and total involuntary movement along the different timepoints (FIG. 29F). […] Total abnormal involuntary movements (FIGS. […]) were the sum of all 4 different involuntary movements evaluated.
The same parameters were analyzed as for 20 days post injection (dpi).

[4] = system: 6-OHDA treated zebrafish larvae; experiment: Co-administration with L-Dopa, total distance 6-OHDA larvae move; format: in vivo; details: hydrochloride; for Effect of co-administration with L-Dopa on locomotor recovery: total distance, L-Dopa 250 or 125 μM
[5] = system: 6-OHDA treated zebrafish larvae; experiment: Rescue of Tyrosine hydroxylase (TH)-positive dopaminergic neurons in 6-OHDA zebrafish larvae; format: in vivo
Method: The 7 candidates also were tested in terms of rescue of dopaminergic neurons positive for Tyrosine hydroxylase (Th) in the substancia nigra pars compacta of the test animals. […] Results were normalized for healthy control values (healthy control=100% of neurons). As a control, zebrafish were treated with only the vehicle, ascorbic acid. ‘6-OHDA_ represents results in zebrafish receiving no treatment.
FIGS. 6E-6G show representative Z-projections of confocal stacks of whole-mount anti-TH immunohistochemistry in 6 days post-fertilization (dpf) of zebrafish larvae (age of the fish) control (FIG. 6E), 6-OHDA (FIG. 6F), and tapentadol treated-larvae (FIG. 6G).

[6] = system: mouse; details: cited from earlier work
[7] = IV, rats; cited from earlier work
[8] = system: rabbit; details: oral administration; cited from earlier work
[9] = after a high-fat, high-calorie breakfast

SMILES: CC[C@@H](c1cccc(O)c1)[C@@H](C)CN(C)C [tapentadol, tapentadol hydrochloride]
- Plasma protein binding ([1]; all species tested including humans): 15-20%
- Plasma protein binding ([1]; plasma): approximately 20%
- Conjugated form among related compounds excreted in the urine ([2]; 100 mg radiolabelled oral dose): 69%
- Drug recovered in 5 days ([2]; 100 mg radiolabelled oral dose): 99.9%
- Excreted via urine ([2]; 100 mg radiolabelled oral dose): 99%
- Exposure to the conjugates, of the total ([2]; 100 mg radiolabelled oral dose): approximately 64%
- Other forms of metabolites among related compounds excreted in the urine ([2]; 100 mg radiolabelled oral dose): 27%
- Parent drug among related compounds excreted in the urine ([2]; 100 mg radiolabelled oral dose): 3%
- Total dose excreted within 24 hours ([2]; 100 mg radiolabelled oral dose): 95%
- Total drug excreted in the feces ([2]; 100 mg radiolabelled oral dose): Approximately 1%
- Cmax ([2]; ER): 22.5 ng/mL
- Cmax ([2]; IR): 64.2 ng/mL
- Tmax ([2]; IR): 1.5 h
- Increase of AUC with food [2, 9]: 25%
- Increase of Cmax with food [2, 9]: 16%
- Elimination half-life ([2]; after oral administration): 4 h
- Metabolized to N-desmethyl tapentadol ([2]; by CY P2C9 and CY P2C19): 13%
- Metabolized to hydroxy tapentadol ([2]; by CY P2D6): 2%
- Bioavailability ([2]; extended release (ER)): 32%
- Lower mean Cmax in elderly vs young adult subjects ([2]; geriatric patients): 16%
- Parent compound metabolized ([2]; humans): about 97%
- Bioavailability ([2]; immediate release (IR)): 32%
- Drug excreted in urine as unchanged drug ([2]; in vivo): 3%
- Excretion via the kidneys (tapentadol and its metabolites) ([2]; in vivo): 99%
- Total clearance ([2]; in vivo): 1530 ± 177 mL/min
- Volume of distribution (Vz) ([2]; intravenous administration, hydrochloride): 540 ± 98 L
- AUC ratio vs normal hepatic function ([2]; mild hepatic impairment (Child-Pugh Score 5 to 6)): 1.7
- Cmax ratio vs normal hepatic function ([2]; mild hepatic impairment): 1.4
- t1/2 ratio vs normal hepatic function ([2]; mild hepatic impairment): 1.2
- AUC ratio vs normal hepatic function ([2]; moderate hepatic impairment (Child-Pugh Score 7 to 9)): 4.2
- Cmax ratio vs normal hepatic function ([2]; moderate hepatic impairment): 2.5
- t1/2 ratio vs normal hepatic function ([2]; moderate hepatic impairment): 1.4
- Mean accumulation factor ([2]; multiple (every 6 hour) dose study, 75 to 175 mg tapentadol): 1.6
- Time of maximum serum concentrations after dosing ([2]; oral): around 1.25 hours
- Mean absolute bioavailability ([2]; single-dose administration (fasting)): approximately 32%
- Dose excreted as O-glucuronide ([2]; urine): 55%
- Dose excreted as sulfate of tapentadol ([2]; urine): 15%
- Induction of abnormal involuntary movements ([3]; L-Dopa treated groups vs tapentadol hydrochloride alone): did not; also recorded: does not induce AIMs
- Effect on L-Dopa induced AIMs / dyskinesia ([3]; concomitant administration with L-Dopa, hydrochloride): not reverted; also recorded: did not revert L-Dopa induced AIMs; also recorded: did not increase dyskinesia
- Tapentadol w L-Dopa: effectiveness with L-Dopa 250 relative to 125 ([4]; co-administration with L-Dopa 250 vs 125, listed as Tapentadol HCl): less and equally
- Effect of co-administration with L-Dopa on locomotor recovery ([4]; listed as Tapentadol): not affected
- Effect of co-administration with L-Dopa on locomotor recovery ([4]; listed as tapentadol hydrochloride): the same or improved
- Neurorescue ([5]; TH+ neurons at optimal dose, p): Confirmed p < 0.055
- Neuroprotective effect / recovery of TH+ neurons ([5]; at the optimal concentration of each molecule, hydrochloride): confirmed; also recorded: recovery was observed
- LD50 ([6]; intravenous administration, mice): 47 mg/kg
- LD50 ([6]; oral administration, mouse): 300 mg/kg
- LD50 ([6]; oral, mice): 300 to 350 mg/kg
- Dose with suspected proconvulsion effect [7]: 6 mg/kg
- LD50 [8]: 3,200 mg/kg
